Experimental data published in patent US20250213593A1, “Use of Derivatives based on Sarsasapogenin Structure and Pharmaceutical Compositions thereof” (BEIJING PHYTOVENT PHARMACEUTICAL TECHNOLOGY CO., LTD., priority 2022, published 2025).
Converted amounts (≈) assume the structure as drawn. “Also recorded” adds a separate entry of the source.

Key:
[1] = test system: C57BL/6 mouse MCAO damage model; assay: Mice middle cerebral artery occlusion (MCAO) damage model; format: in vivo; conditions: 24 h after surgery, vs MCAO model group
Procedure: Animal grouping and treatment: according to body weight on Day 1, the animals were randomly divided into a total of 8 groups (N=5), one group was treated every day, and 3 animals were selected in each group for measuring cerebral blood flows.
If the hind paws of the mice had no response when clamped with dissecting forceps, they were transferred to an anesthesia mask, and the isoflurane concentration would be increased to 1.5%. A thermostat and an anal temperature probe were used to maintain intraoperative body temperatures of the mice near 37° C. […]
Measurement of cerebral blood flow: the head of each mouse was fixed under a brain stereotaxic instrument, the head hair of the mouse was shaved, and an incision was made in the middle. […] Optical fibers of a laser Doppler flow meter were fixed with glue at coordinates of Bregma AP 1.0 mm and ML 5.0 mm, and the blood flow changes during MCA surgery were recorded. […]
• Body weight: the body weights of the mice on the day before surgery and 24 h after surgery were recorded. • Neurological function scoring: Longa behavioral scoring was performed at 2 h and 24 h after surgery. […]
Each mouse was tested for forelimb grip 24 h before surgery and 24 h after surgery. […] The grip peaks were recorded, repeatedly measured for three times, and averaged. […]

physchem = conditions: organic solvent or mixture
[2] = test system: transgenic neutrophil fluorescent zebrafishes; assay: Maximum tolerated concentration (MTC) in LPS-induced inflammation zebrafish; format: in vivo; conditions: for Death count / Death rate (%): n = 30; for If precipitation occurred?: fish-farming water
Description: Transgenic neutrophil fluorescent zebrafishes were matched and propagated naturally in pairs. The age was 3 days after fertilization (3 dpf), and there was a total of 810 zebrafishes, with 30 zebrafishes per experimental group. The purposes were to determine maximum tolerated concentrations (MTC) of “Embodiment 5” and “Embodiment 6” in an LPS-induced inflammation experiment, and evaluate anti-inflammatory effects of “Embodiment 5” and “Embodiment 6” on LPS-induced inflammations.
(§1) LPS was used to treat normal 3 dpf transgenic neutrophil fluorescent zebrafishes in a yolk sac injection, and a zebrafish inflammation model was established.
Transgenic neutrophil fluorescent zebrafishes (3 dpf), well developed and consistent in stage on 3 days after fertilization, were picked under a microscope and placed in a six-well plate, with 30 zebrafishes being randomly picked for each well at a capacity of 3 mL in each well. A zebrafish inflammation model was established by administrating LPS in a yolk sac injection. “Embodiment 5” and “Embodiment 6” were respectively dissolved with water, wherein the concentrations were 0.625 μM, 1.25 μM, 2.5 μM, 5 μM, 10 μM, 50 μM, 100 μM and 200 μM, respectively. Meanwhile, anormal control group (i.e., zebrafishes were treated with fish-farming water) and a model control group were set, and cultured in a 28° C. incubator for 3 h, and the death of zebrafishes was then observed and recorded. The number of dead zebrafishes in each experimental group was counted, and the maximum tolerated concentrations (MTCs) of zebrafishes in “Embodiment 5” and “Embodiment 6” were determined.

[3] = test system: transgenic neutrophil fluorescent zebrafishes; assay: Anti-inflammatory effect on LPS-induced inflammatory zebrafish; format: in vivo
Procedure: as §1
Transgenic neutrophil fluorescent zebrafishes (3 dpf), well developed and consistent in stage on 3 days after fertilization, were picked under a microscope and placed in a six-well plate, with 30 zebrafishes being randomly picked for each well at a capacity of 3 mL in each well. A zebrafish inflammation model was established by administrating LPS in a yolk sac injection. “Embodiment 5” and “Embodiment 6” were respectively dissolved with water, wherein the concentrations were 0.28 μM, 0.83 μM and 2.5 μM, respectively. The concentration of indomethacin was 80 μM. Meanwhile, a normal control group (i.e., zebrafishes were treated with fish-farming water) and a model control group were set, and incubated in a 28° C. incubator for 3 h. 10 zebrafishes were randomly selected from each group, and observed and photographed under a fluorescence microscope, and the photos were saved. Nikon NIS-Elements D 3.10 advanced image processing software was used for image analysis, the number (N) of inflammatory neutrophils in zebrafish was calculated, and the statistical processing results were expressed as mean±SE. The statistical analysis results of the number of inflammatory neutrophils in zebrafish were used to evaluate whether “Embodiment 5” and “Embodiment 6” had significant anti-inflammatory effects on LPS-induced inflammatory zebrafish, respectively. A formula for calculating the anti-inflammatory effects of “Embodiment 5” and “Embodiment 6” was as follows: […]

[4] = test system: transgenic AD mice (C57BL/6J background); assay: Light/dark box test of AD mice; format: in vivo, mouse; conditions: 6 months after administration
Description: The principle of the light/dark box test is: the mice have a natural tendency to darkness; and after the mice was put into a light box, the mice would spontaneously enter a connected dark box. However, in this experiment, the dark box was equipped with an electrical stimulation mechanism, and the mice would be shocked when they entered the dark box.

[5] = test system: Raji-Luc hematologic tumor cells in NOD-Scid immunodeficient mice; assay: NOD-Scid mice inoculated with hematologic tumor cells Raji-Luc; conditions: 100 mpk by gavage once a day
[6] = test system: C57BL/6 mice modeled with MPTP; assay: PD mouse model (MPTP); format: in vivo; conditions: 80 mpk, 15 days; vs model group, T-test
Procedure: • Experimental and analytical method: mice of C57BL/6 strain were used in this experiment, which were divided into 5 groups, including a normal control group (no injection of MPTP), a model group (modeling with MPTP), and treatment groups of three small molecules (Embodiment 13B, Embodiment 25A, and Embodiment 25B). The drug was administered at the same time as modeling was made. The modeling lasted for 5 days, followed by 30 mpk intraperitoneal injection till lasting for 15 days, and lasted for 15 days at 80 mpk. At the endpoint, the brain was soaked and fixed in PFA after cardiac perfusion, and transferred to sucrose dehydration after complete fixation, and OCT embedding and sectioning were used for TH staining after complete dehydration. The detection indicator was the number of TH-positive cells in the substantia nigra. The more positive cells, the better the protection effect of small molecules against MPTP damage. • Results: there were 12 mice in each group, and the statistical results were shown in FIG. 50, T-test, **: p<0.01, #: p<0.05.

[7] = test system: SMPs (submitochondrial particles); assay: Catalytic activity of SMPs (NADH dehydrogenation); format: biochemical; conditions: Rotenone 2 μM, 10 min, 500 μM NADH
Procedure: Experiment 9. Detection of Small Molecule Compounds that Facilitated the Catalytic Activity of SMPs (Submitochondrial Particles) • Experimental and analytical method: HEK293 cells were cultured at 5% CO2, and purified to obtain mitocondria, which were sonicated to obtain SMPs (submitochondrial granules). SMPs were incubated with different concentrations of small molecule compounds or a control drug (Rotenone, 2 μM) for 10 min, and then added with 500 μM of NADH. The absorbance of NADH was detected by an Enspire multi-mode microplate reader, an enzyme activity curve with the decrease of NADH concentration catalyzed by SMPs was plotted, and a maximum reaction rate of SMPs was calculated by linear fitting. The addition of 1 mM FeCN to a normal NADH catalytic system of SMPs could cause an electronic pathway from NADH to coenzyme Q to be short-circuited.

[8] = concentration 0.625 (table head μg/mL; text μM)
[9] = concentration 0.625 (table head μg/mL; text μM), 3 h
[10] = concentration 1.25 (table head μg/mL; text μM)
[11] = concentration 1.25 (table head μg/mL; text μM), 3 h
[12] = concentration 2.5 (table head μg/mL; text μM)
[13] = concentration 2.5 (table head μg/mL; text μM), 3 h
[14] = concentration 5 (table head μg/mL; text μM), 3 h
[15] = concentration 10 (table head μg/mL; text μM), 3 h
[16] = concentration 50 (table head μg/mL; text μM), 3 h
[17] = concentration 100 (table head μg/mL; text μM), 3 h
[18] = concentration 200 (table head μg/mL; text μM), 3 h

CC1=NN(c2ccccc2)C(=O)C1 [Edaravone]
forelimb grip strength ([1]; Edaravone 10 mg/kg IP, NO. 2 60 mg/kg PO, NO. 3-6 80 mg/kg PO): significant difference
volume of encephaledema (TTC staining) ([1]; doses as Table 6): significant difference

C[C@H]1CC[C@@]2(OC1)O[C@H]1C[C@H]3[C@@H]4CC[C@@H]5CC(NC(=O)CC(=O)N6CCN(C)CC6)CC[C@]5(C)[C@H]4CC[C@]3(C)[C@H]1[C@@H]2C (stereo partly drawn) [Embodiment 5]
solubility (physchem): 20 mM (≈ 11.7 mg/mL)
Toxicity [2, 8]: No obvious toxicity
Death count [2, 9]: 0
Death rate (%) [2, 9]: 0%
If precipitation occurred? [2, 8]: No
Toxicity [2, 10]: No obvious toxicity
Death count [2, 11]: 0
Death rate (%) [2, 11]: 0%
If precipitation occurred? [2, 10]: No
Toxicity [2, 12]: normal state; also recorded: No obvious toxicity
Death count [2, 13]: 0
Death rate (%) [2, 13]: 0%
If precipitation occurred? [2, 12]: not precipitated and No
Death count [2, 14]: 3
Death rate (%) [2, 14]: 10%
If precipitation occurred? ([2]; concentration 5 (table head μg/mL; text μM)): No
Death count [2, 15]: 30
Death rate (%) [2, 15]: 100%
If precipitation occurred? ([2]; concentration 10 (table head μg/mL; text μM)): No
Death count [2, 16]: 30
Death rate (%) [2, 16]: 100%
If precipitation occurred? ([2]; concentration 50 (table head μg/mL; text μM)): No
Death count [2, 17]: 30
Death rate (%) [2, 17]: 100%
If precipitation occurred? ([2]; concentration 100 (table head μg/mL; text μM)): No
Death count [2, 18]: 30
Death rate (%) [2, 18]: 100%
If precipitation occurred? ([2]; concentration 200 (table head μg/mL; text μM)): No
maximum tolerated concentration (MTC) ([2]; in the evaluation of the anti-inflammatory effect, LPS zebrafish, 3 h): 2.5 µM
Inflammation resolution (%) / anti-inflammatory effect ([3]; 0.28 μM): 33%
Inflammation resolution (%) / anti-inflammatory effect ([3]; 0.83 μM): 61%
Inflammation resolution (%) / anti-inflammatory effect ([3]; 2.5 μM): 67%
anti-inflammatory effects on inflammatory zebrafish (in words) ([3]; 0.28 to 2.5 μM, P<0.001 vs model control): obvious anti-inflammatory effects

C[C@H]1CC[C@@]2(OC1)O[C@H]1C[C@H]3[C@@H]4CC[C@@H]5CC(NC(=O)CC(=O)N6CC(N7CCOCC7)C6)CC[C@]5(C)C4CC[C@]3(C)[C@H]1[C@@H]2C (stereo partly drawn) [Embodiment 23]
memory on electric shock (latency before entering the dark box) [4]: could effectively enhance the memory

CCN1CCN(C2CCN(C(=O)CC(=O)N[C@@H]3CC[C@]4(C)C5CC[C@]6(C)[C@@H]7[C@H](C[C@H]6[C@@H]5CC[C@@H]4C3)O[C@]3(CC[C@H](C)CO3)[C@H]7C)CC2)CC1 (stereo partly drawn) [Embodiment 25B]
tumor killing effect (in-vivo fluorescence intensity) [5]: relatively good tumor killing effects
number of TH-positive cells in the substantia nigra [6]: only the Embodiment 13B group of three small modules had statistically significant differences

C=C(C)[C@H]1Cc2c(ccc3c2O[C@@H]2COc4cc(OC)c(OC)cc4[C@@H]2C3=O)O1 [Rotenone]
dehydrogenation reaction of NADH by SMPs [7]: completely blocked
